Assay results taken from patent publication US12208091B2, “Compounds for treatment of eye diseases associated with excessive vascularisation” (Active Biotech AB, priority 2019, dated 2025).
Entries after “also recorded” stand apart in the source; their conditions may differ.

Tests used:
[1] = tested on: VEGF induced corneal vascularisation; experiment: VEGF induced corneal vascularisation (pellet in corneal pocket), area of neovascularisation; format: in vivo, C57BL/6 mice; design: Area of vasc.: unit not given beside the values
Protocol: (§1) The area of the neovascularisation can be measured using the formula: Area=0.2·VL·CH·π wherein vessel length (VL) and continuous circumferential zone (in clock hours=CH) are measured as defined in FIG. 1. Treatment with Laquinimod of VEGF Induced Corneal Vascularisation
Hydron pellets for induction of vascularisation were prepared from stimulant (VEGF) and binding agent (sucralfate).
53 CR female C57BL/6 mice aged 6 to 8 weeks were prepared for surgery by anesthetising with 90 mg/kg of pentobarbital, ip. Corneal vascularisation was induced by placement of a pellet in a corneal pocket cut in one eye. Signs for ocular irritation or infection were carefully monitored.
[…] Vascularisation was measured on day 8.

[2] = tested on: bFGF induced corneal vascularisation; experiment: bFGF induced corneal vascularisation (pellet in corneal pocket), area of neovascularisation; format: in vivo, C57BL/6 mice
Protocol: as §1
Hydron pellets for induction of vascularisation were prepared from stimulant (bFGF) and binding agent (sucralfate).
47 CR female C57BL/6 mice aged 6 to 8 weeks were prepared for surgery by anesthetising with 90 mg/kg of pentobarbital, ip. Corneal vascularisation was induced by placement of a pellet in a corneal pocket cut in one eye. Signs for ocular irritation or infection were carefully monitored.
Dosages of laquinimod in DI (deionised) water, vehicle (DDW=double distilled water), and avastin (positive control) were applied directly to the eye containing the pellet. Vascularisation was measured on day 6.

[3] = tested on: Human retinal microvascular endothelial cells (HRMECs); experiment: Tube formation assay, combination with aflibercept (contemplated); format: cell-based; settings: 1 and 10 μM combined with Aflibercept (30 nM)
Source text: Microglia, especially activated microglia play important roles in angiogenesis and maintenance of vascular function haemostasis in the retinal microvasculature (Ding et al 2018). It is contemplated that a co-culture of human retinal microvasculature endothelial cells (HRMEC's) and human microglia from brain can be used to assess the effects of a compound of the disclosure, such as laquinimod, tasquinimod, ABR-215174 or ABR-215691, on neovascularization. A method such as the one outlined below may be used.
This study may be carried out substantially as outlined in Example 3.
Tube formation assay is performed using 24-well plate wells coated with Matrigel or in 96-wells as described Ding et al. 2018 (Ding et al. BMC Ophthalmology (2018) 18:249): A 96-well plate is coated with 50 μL/well Matrigel at 37° C. for 30 min. After co-culturing with microglia for 24 h, HRMECs are seeded on the Matrigel at 1.5×10^4 cells/well in 100 μL medium. After a period of time, for example 4 h, tube formation is observed and photographed with a microscope (Leica Microsystems). Images are analysed using the Angiotool plugin (Zudaire et al., 2011, PLoS one, 6, 11, e27385) for ImageJ (NIH public domain). Total tube area, tube length, density, lacunarity, and branching index (number of junctions and endpoints) are quantified.

[4] = tested on: bFGF induced corneal vascularisation; experiment: bFGF induced corneal vascularisation (pellet in corneal pocket), area of neovascularisation; format: in vivo, C57BL/6 mice; remark: listed apart in the source
[5] = group 4: 10 μg/animal topical bid ×7, measured day 8
[6] = group 5: 50 μg/animal topical bid ×7, measured day 8
[7] = group 6: 10 μg/animal topical qid ×7, measured day 8
[8] = group 7: 50 μg/animal topical qid ×7, measured day 8
[9] = group 5: 50 μg/animal topical bid ×5, measured day 6
[10] = group 7: 50 μg/animal topical qid ×5, measured day 6
[11] = group 4: 10 μg/animal topical bid ×5, measured day 6
[12] = group 6: 10 μg/animal topical qid ×5, measured day 6

In the case of CCN(C(=O)c1c(O)c2c(Cl)cccc2n(C)c1=O)c1ccccc1 [laquinimod], the “Inhibition of corneal vascularisation induced by VEGF” value (shortened to “Inhibition … by VEGF”) ([1]; 0.5 mg/kg bid, group 4) is reported as “did not provide for any inhibition; also recorded: no inhibition”, the “Inhibition … by VEGF” value ([1]; 0.5 mg/kg qid, group 6) is reported as 8% and the “Inhibition … by VEGF” value ([1]; 2.5 mg/kg bid, group 5) is reported as 46%. For the same compound, the “Inhibition … by VEGF” value ([1]; 2.5 mg/kg qid, group 7) was 50%, the Area of vasc. [1, 5] was 1.49 ± 0.13 and the “Area percent of positive control” value [1, 5] was 101%. The Area of vasc. [1, 6] was 0.79 ± 0.06, the “Area percent of positive control” value [1, 6] was 54% and the Area of vasc. [1, 7] was 1.35 ± 0.09. For the same compound, the “Area percent of positive control” value [1, 7] was 92%, the Area of vasc. [1, 8] was 0.74 ± 0.11 and the “Area percent of positive control” value [1, 8] was 50%. The “Inhibition of corneal vascularisation induced by bFGF” value (from here on “Inhibition … by bFGF”) ([2]; 0.5 mg/kg bid, group 4) was 11%, the “Inhibition … by bFGF” value ([2]; 2.5 mg/kg bid, group 5) was 35% and the “Inhibition … by bFGF” value ([2]; 2.5 mg/kg qid, group 7) was 56%. The Area of vasc. [2, 9] was 2.30 ± 0.23, the “Area percent of positive control” value [2, 9] was 65% and the Area of vasc. [2, 10] was 1.56 ± 0.15. For the same compound, the “effect on tube formation of combination compared to each compound used as monotherapy” value [3] was “clear additive effect”, the “Inhibition … by bFGF” value ([4]; 0.5 mg/kg qid, group 6) was 37% and the Area of vasc. [4, 11] was 3.16 ± 0.06. For the same compound, the “Area percent of positive control” value [4, 11] was 89%, the Area of vasc. [4, 12] was 2.25 ± 0.16 and the “Area percent of positive control” value [4, 12] was 63%. The “Area percent of positive control” value [4, 10] was 44%.
